The record followed here is PubChem BioAssay (NCI).

Several values for one entry are separate records, joined by “and”; a condition that tells them apart may be missing. Equal values may be shown once.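 Values below derive from 48-hour exposures of cells grown in 96-well plates, with endpoints linearly interpolated between the two concentrations bracketing the appropriate inhibition level. At the GI50, growth is halved. The concentration for full growth arrest is given as TGI.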 Where only a bound is given, the exact number is not on record here.

Among the test systems are SF-268 CNS; HOP-92 NSCLC; UACC-62 melanoma; NCI-H522 lung; HCT-116 colon; SF-539 CNS; SW-620 colon; OVCAR-4 ovarian; SK-MEL-28 melanoma; ACHN renal.
Common to all, as to experiment: NCI-60 cell line screen, 48 h

In the case of `Cc1ccc2[nH]c3c(c2c1)N=c1ccccc1=NO3`, the GI50 in the assay with SF-268 CNS was 23.1 µM; in the assay on HOP-92 NSCLC, over 100 µM; with UACC-62 melanoma, 36.5 µM; with NCI-H522 lung, 26 µM; in the assay on HCT-116 colon it was 83.8 µM; in the assay on SF-539 CNS, 10.6 µM. The GI50 in the assay with SW-620 colon was over 100 µM; in the assay on OVCAR-4 ovarian, 27.9 µM; in the assay on SK-MEL-28 melanoma, over 100 µM; in the assay with ACHN renal it was 32.3 µM. Further, the TGI in the assay with SF-268 CNS is 55.8 µM; in the assay with HOP-92 NSCLC, over 100 µM; in the assay with UACC-62 melanoma, over 100 µM; in the assay on NCI-H522 lung it was over 100 µM; with HCT-116 colon it was over 100 µM; in the assay with SF-539 CNS, 27.6 µM. Moreover, the TGI in the assay with SW-620 colon, with OVCAR-4 ovarian, with SK-MEL-28 melanoma and in the assay with ACHN renal was over 100 µM throughout.
Consider `CC(CN(C)C)S(=O)(=O)c1ccc(-c2cnc(N)c(C(=O)Nc3ccccc3)n2)cc1` (stereo not given), for which the GI50 in the assay with SF-268 CNS is 6.8 µM; in the assay on HOP-92 NSCLC it was 6.86 µM; in the assay on UACC-62 melanoma, 6.28 µM; in the assay on NCI-H522 lung, 17.5 µM; in the assay on HCT-116 colon, 4.88 µM; with SF-539 CNS, 2.75 µM. The GI50 in the assay on SW-620 colon was 3.84 µM; in the assay on OVCAR-4 ovarian, 6.95 µM; in the assay with SK-MEL-28 melanoma, 7.22 µM; in the assay on ACHN renal, 1.35 µM. Also, the TGI with SF-268 CNS is 39.8 µM; in the assay with HOP-92 NSCLC, 34.7 µM; in the assay with UACC-62 melanoma it was 21.6 µM; in the assay with NCI-H522 lung, 35.9 µM; with HCT-116 colon it was 21.2 µM; with SF-539 CNS it was 9.76 µM. Also, the TGI with SW-620 colon was 19.2 µM; in the assay with OVCAR-4 ovarian, 54.2 µM; in the assay with SK-MEL-28 melanoma, 21.4 µM; with ACHN renal, 16.9 µM.
On to `O=P(O)(O)OCC1OC(n2cnc3c(NCc4ccco4)ncnc32)C(O)C1O` (stereo not given), for which the GI50 is 3.62 µM in the assay on SF-268 CNS; 1.36 µM with HOP-92 NSCLC; 2.71 µM in the assay with UACC-62 melanoma; 1.14 µM with NCI-H522 lung; 0.41 µM in the assay with HCT-116 colon; 2.7 µM in the assay with SF-539 CNS. For the same molecule, the GI50 with SW-620 colon is 0.993 µM; with OVCAR-4 ovarian it was 2.62 µM; in the assay on SK-MEL-28 melanoma it was 16.2 µM; in the assay with ACHN renal it was 2.2 µM. Moreover, the TGI with SF-268 CNS was over 79.6 µM; with HOP-92 NSCLC, 13.4 µM; with UACC-62 melanoma, 12.5 µM; in the assay on NCI-H522 lung, 19 µM; in the assay with HCT-116 colon, 1.85 µM; in the assay on SF-539 CNS, 12.5 µM. Besides, the TGI with SW-620 colon was over 44.3 µM; in the assay on OVCAR-4 ovarian it was over 41 µM; in the assay on SK-MEL-28 melanoma it was over 100 µM; in the assay with ACHN renal it was over 100 µM.
`Cc1cn(CCC(N)C(=O)O)c(=O)[nH]c1=O` (stereo not given): the TGI with SF-268 CNS, with HOP-92 NSCLC, in the assay on UACC-62 melanoma, in the assay on NCI-H522 lung, in the assay on HCT-116 colon and with SF-539 CNS was over 100 µM throughout. In addition, the TGI in the assay on SW-620 colon, with OVCAR-4 ovarian, in the assay on SK-MEL-28 melanoma and with ACHN renal was over 100 µM in each case.
Take `CN(C)c1ccc(C(=N)c2ccc(N(C)C)cc2)cc1`: the GI50 is 4.64 µM and 11.6 µM with SF-268 CNS; 0.942 µM and 1.52 µM with HOP-92 NSCLC; 3.24 µM and 5.32 µM with UACC-62 melanoma; 0.503 µM and 1.16 µM in the assay on NCI-H522 lung; 2.41 µM and 3.46 µM in the assay with HCT-116 colon; 2.88 µM and 3.5 µM with SF-539 CNS. The GI50 was 1.95 µM and 2.58 µM in the assay on SW-620 colon; 5.86 µM and 3.71 µM with OVCAR-4 ovarian; 4.82 µM and 3.26 µM in the assay on SK-MEL-28 melanoma; 6.5 µM and 7.39 µM in the assay on ACHN renal. For the same molecule, the TGI was 43.4 µM and > 100 µM with SF-268 CNS; 6.24 µM and 8.69 µM in the assay with HOP-92 NSCLC; 17.6 µM and 23.9 µM in the assay on UACC-62 melanoma; 5.01 µM and 9.45 µM in the assay on NCI-H522 lung; 14.2 µM and 41 µM with HCT-116 colon; 11.5 µM and 25.7 µM in the assay on SF-539 CNS. Moreover, the TGI in the assay with SW-620 colon was 20.8 µM and > 100 µM; with OVCAR-4 ovarian, over 100 µM; with SK-MEL-28 melanoma, 48.8 µM and 27.5 µM; in the assay with ACHN renal, over 100 µM.
Turning to `CCn1c(-c2c(Cl)cc(O)cc2Cl)cc2c(Cl)cc(O)cc21`, the TGI in the assay with SF-268 CNS is 16.1 µM; with HOP-92 NSCLC it was 59.4 µM; with UACC-62 melanoma it was 32.8 µM; in the assay with NCI-H522 lung it was 6.68 µM; in the assay with HCT-116 colon, over 100 µM; in the assay with SF-539 CNS, 23.2 µM. Moreover, the TGI is 41 µM with SW-620 colon, 21.7 µM with OVCAR-4 ovarian, 10.1 µM in the assay on SK-MEL-28 melanoma and 16.9 µM in the assay on ACHN renal.
For `O=C1OC(c2ccccc2)(c2ccccc2)c2ccc3ccc(F)cc3c21`, the TGI with SF-268 CNS, in the assay with HOP-92 NSCLC, in the assay on UACC-62 melanoma, in the assay on NCI-H522 lung, in the assay on HCT-116 colon and in the assay on SF-539 CNS was over 100 µM throughout. In addition, the TGI in the assay on SW-620 colon, in the assay with OVCAR-4 ovarian, in the assay on SK-MEL-28 melanoma and with ACHN renal was over 100 µM throughout.
Consider `C[C@]12CC[C@@H]3c4ccc(O)cc4CC[C@H]3[C@@H]1CC[C@@H]2NS(=O)(=O)c1cccc(Cl)c1`, for which the GI50 in the assay with SF-268 CNS was 3.23 µM; with HOP-92 NSCLC, 2.08 µM; with UACC-62 melanoma, 1.86 µM; in the assay with NCI-H522 lung, 1.91 µM; in the assay on HCT-116 colon it was 1.68 µM; in the assay with SF-539 CNS, 1.76 µM. Moreover, the GI50 in the assay on SW-620 colon was 3.91 µM; with OVCAR-4 ovarian it was 2.2 µM; in the assay with SK-MEL-28 melanoma, 2.24 µM; in the assay with ACHN renal, 2.58 µM. Moreover, the TGI turned out to be 13.6 µM with SF-268 CNS; 5.69 µM in the assay on HOP-92 NSCLC; 4.84 µM in the assay on UACC-62 melanoma; 7.15 µM in the assay with NCI-H522 lung; 3.11 µM in the assay with HCT-116 colon; 3.45 µM in the assay on SF-539 CNS. For the same molecule, the TGI in the assay on SW-620 colon came out at 15 µM; in the assay with OVCAR-4 ovarian, 10.5 µM; in the assay with SK-MEL-28 melanoma, 5.93 µM; in the assay on ACHN renal it was 7.69 µM.
